{
  "source": "ChEMBL document CHEMBL3272085",
  "about": "“Quantitative structure-activity relationships. 2. A mixed approach, based on Hansch and Free-Wilson Analysis” (1976)",
  "format_in_all_cases": "functional",
  "key": {"Aspergillus niger": {"system": "Aspergillus niger", "assay": "Antimicrobial activity against Aspergillus niger"}, "Bacillus cereus": {"system": "Bacillus cereus", "assay": "Antimicrobial activity against Bacillus cereus"}, "Micrococcus luteus": {"system": "Micrococcus luteus", "assay": "Antimicrobial activity against Sarcina lutea"}, "Bacillus subtilis": {"system": "Bacillus subtilis", "assay": "Antimicrobial activity against Bacillus subtilis"}, "Enterococcus faecalis": {"system": "Enterococcus faecalis", "assay": "Antimicrobial activity against Streptococcus faecalis"}, "Staphylococcus aureus": {"system": "Staphylococcus aureus", "assay": "Antimicrobial activity against Staphylococcus aureus"}, "Wickerhamomyces anomalus": {"system": "Wickerhamomyces anomalus", "assay": "Antimicrobial activity against Hansenula anomala"}},
  "data": [
    {"smiles": "Oc1ccccc1C1CCCCC1", "values": [
      {"measurement": "log(1/C)", "setting": "Aspergillus niger", "value": 4}
    ]},
    {"smiles": "Cc1ccc(C(C)(C)C)c(O)c1", "values": [
      {"measurement": "log(1/C)", "setting": "Aspergillus niger", "value": 3.7}
    ]},
    {"smiles": "Cc1cc(C)cc(O)c1", "values": [
      {"measurement": "log(1/C)", "setting": "Aspergillus niger", "value": 3.26}
    ]},
    {"smiles": "Cc1cc(Cl)ccc1O", "values": [
      {"measurement": "log(1/C)", "setting": "Aspergillus niger", "value": 3.7}
    ]},
    {"smiles": "CC(C)c1ccccc1O", "values": [
      {"measurement": "log(1/C)", "setting": "Aspergillus niger", "value": 3.35}
    ]},
    {"smiles": "Cc1cccc(C)c1O", "values": [
      {"measurement": "log(1/C)", "setting": "Aspergillus niger", "value": 3.35}
    ]},
    {"smiles": "C=C(C)C(=O)Oc1ccccc1", "values": [
      {"measurement": "log(1/C)", "setting": "Bacillus cereus", "value": 2.89},
      {"measurement": "log(1/C)", "setting": "Micrococcus luteus", "value": 2.89},
      {"measurement": "log(1/C)", "setting": "Bacillus subtilis", "value": 2.89},
      {"measurement": "log(1/C)", "setting": "Enterococcus faecalis", "value": 2.89},
      {"measurement": "log(1/C)", "setting": "Staphylococcus aureus", "value": 2.89},
      {"measurement": "log(1/C)", "setting": "Wickerhamomyces anomalus", "value": 2.89}
    ]},
    {"smiles": "C=C(C)C(=O)Oc1ccccc1Cl", "values": [
      {"measurement": "log(1/C)", "setting": "Bacillus cereus", "value": 3.08},
      {"measurement": "log(1/C)", "setting": "Micrococcus luteus", "value": 3.08},
      {"measurement": "log(1/C)", "setting": "Bacillus subtilis", "value": 3.08},
      {"measurement": "log(1/C)", "setting": "Enterococcus faecalis", "value": 3.08},
      {"measurement": "log(1/C)", "setting": "Staphylococcus aureus", "value": 3.08},
      {"measurement": "log(1/C)", "setting": "Wickerhamomyces anomalus", "value": 3.28}
    ]},
    {"smiles": "C=C(C)C(=O)Oc1ccc(Cl)cc1", "values": [
      {"measurement": "log(1/C)", "setting": "Bacillus cereus", "value": 3.25},
      {"measurement": "log(1/C)", "setting": "Micrococcus luteus", "value": 3.25},
      {"measurement": "log(1/C)", "setting": "Bacillus subtilis", "value": 3.25},
      {"measurement": "log(1/C)", "setting": "Enterococcus faecalis", "value": 3.25},
      {"measurement": "log(1/C)", "setting": "Staphylococcus aureus", "value": 3.12},
      {"measurement": "log(1/C)", "setting": "Wickerhamomyces anomalus", "value": 3.25}
    ]},
    {"smiles": "C=C(C)C(=O)Oc1cccc(Cl)c1", "values": [
      {"measurement": "log(1/C)", "setting": "Bacillus cereus", "value": 2.91},
      {"measurement": "log(1/C)", "setting": "Micrococcus luteus", "value": 3.12},
      {"measurement": "log(1/C)", "setting": "Bacillus subtilis", "value": 2.91},
      {"measurement": "log(1/C)", "setting": "Enterococcus faecalis", "value": 2.77},
      {"measurement": "log(1/C)", "setting": "Staphylococcus aureus", "value": 2.91},
      {"measurement": "log(1/C)", "setting": "Wickerhamomyces anomalus", "value": 3.12}
    ]},
    {"smiles": "C=C(C)C(=O)Oc1ccc(Cl)cc1Cl", "values": [
      {"measurement": "log(1/C)", "setting": "Bacillus cereus", "value": 3.49},
      {"measurement": "log(1/C)", "setting": "Micrococcus luteus", "value": 3.49},
      {"measurement": "log(1/C)", "setting": "Bacillus subtilis", "value": 3.8},
      {"measurement": "log(1/C)", "setting": "Enterococcus faecalis", "value": 3.49},
      {"measurement": "log(1/C)", "setting": "Staphylococcus aureus", "value": 3.49},
      {"measurement": "log(1/C)", "setting": "Wickerhamomyces anomalus", "value": 3.49}
    ]},
    {"smiles": "C=C(C)C(=O)Oc1c(Cl)cc(Cl)cc1Cl", "values": [
      {"measurement": "log(1/C)", "setting": "Bacillus cereus", "value": 3.76},
      {"measurement": "log(1/C)", "setting": "Micrococcus luteus", "value": 3.24},
      {"measurement": "log(1/C)", "setting": "Bacillus subtilis", "value": 3.76},
      {"measurement": "log(1/C)", "setting": "Enterococcus faecalis", "value": 3.76},
      {"measurement": "log(1/C)", "setting": "Staphylococcus aureus", "value": 3.76},
      {"measurement": "log(1/C)", "setting": "Wickerhamomyces anomalus", "value": 3.46}
    ]},
    {"smiles": "C=C(C)C(=O)Oc1cc(Cl)c(Cl)cc1Cl", "values": [
      {"measurement": "log(1/C)", "setting": "Bacillus cereus", "value": 3.84},
      {"measurement": "log(1/C)", "setting": "Micrococcus luteus", "value": 3.54},
      {"measurement": "log(1/C)", "setting": "Bacillus subtilis", "value": 3.84},
      {"measurement": "log(1/C)", "setting": "Enterococcus faecalis", "value": 3.84},
      {"measurement": "log(1/C)", "setting": "Staphylococcus aureus", "value": 3.84},
      {"measurement": "log(1/C)", "setting": "Wickerhamomyces anomalus", "value": 3.54}
    ]},
    {"smiles": "C=C(C)C(=O)Oc1c(Cl)cc(Cl)c(Cl)c1Cl", "values": [
      {"measurement": "log(1/C)", "setting": "Bacillus cereus", "value": 4.45},
      {"measurement": "log(1/C)", "setting": "Micrococcus luteus", "value": 3.32},
      {"measurement": "log(1/C)", "setting": "Bacillus subtilis", "value": 4.67},
      {"measurement": "log(1/C)", "setting": "Enterococcus faecalis", "value": 3.97},
      {"measurement": "log(1/C)", "setting": "Staphylococcus aureus", "value": 4.97},
      {"measurement": "log(1/C)", "setting": "Wickerhamomyces anomalus", "value": 3.45}
    ]},
    {"smiles": "C=C(C)C(=O)Oc1c(Cl)c(Cl)c(Cl)c(Cl)c1Cl", "values": [
      {"measurement": "log(1/C)", "setting": "Bacillus cereus", "value": 5},
      {"measurement": "log(1/C)", "setting": "Micrococcus luteus", "value": 3.71},
      {"measurement": "log(1/C)", "setting": "Bacillus subtilis", "value": 5},
      {"measurement": "log(1/C)", "setting": "Enterococcus faecalis", "value": 4.71},
      {"measurement": "log(1/C)", "setting": "Staphylococcus aureus", "value": 5.19},
      {"measurement": "log(1/C)", "setting": "Wickerhamomyces anomalus", "value": 3.35}
    ]},
    {"smiles": "C=C(C)C(=O)Oc1c(Br)c(Br)c(Br)c(Br)c1Br", "values": [
      {"measurement": "log(1/C)", "setting": "Bacillus cereus", "value": 3.85},
      {"measurement": "log(1/C)", "setting": "Micrococcus luteus", "value": 3.64},
      {"measurement": "log(1/C)", "setting": "Bacillus subtilis", "value": 5.32},
      {"measurement": "log(1/C)", "setting": "Enterococcus faecalis", "value": 3.64},
      {"measurement": "log(1/C)", "setting": "Staphylococcus aureus", "value": 5.32},
      {"measurement": "log(1/C)", "setting": "Wickerhamomyces anomalus", "value": 3.35}
    ]},
    {"smiles": "Cc1cc(Cl)cc(C)c1O", "values": [
      {"measurement": "log(1/C)", "setting": "Aspergillus niger", "value": 4.4}
    ]},
    {"smiles": "CC(C)c1cc(Cl)ccc1O", "values": [
      {"measurement": "log(1/C)", "setting": "Aspergillus niger", "value": 4.3}
    ]},
    {"smiles": "Cc1cc(O)c(C(C)(C)C)cc1Cl", "values": [
      {"measurement": "log(1/C)", "setting": "Aspergillus niger", "value": 4.3}
    ]},
    {"smiles": "Oc1ccc(Cl)cc1C1CCCCC1", "values": [
      {"measurement": "log(1/C)", "setting": "Aspergillus niger", "value": 4.4}
    ]},
    {"smiles": "Oc1ccc(Cl)cc1-c1ccccc1", "values": [
      {"measurement": "log(1/C)", "setting": "Aspergillus niger", "value": 4.52}
    ]},
    {"smiles": "CCCCCCCCCCCC[N+](C)(C)Cc1cc([N+](=O)[O-])ccc1O", "values": [
      {"measurement": "log(1/C)", "setting": "Staphylococcus aureus", "value": 2.7}
    ]},
    {"smiles": "Oc1ccccc1-c1ccccc1", "note": "[2-PHENYLPHENOL]", "values": [
      {"measurement": "log(1/C)", "setting": "Aspergillus niger", "value": 4.1}
    ]},
    {"smiles": "CCCCCCCCCCCC[N+](C)(C)Cc1ccccc1", "note": "[BENZODODECINIUM]", "values": [
      {"measurement": "log(1/C)", "setting": "Staphylococcus aureus", "value": 3.74}
    ]},
    {"smiles": "CCCCCCCCCCCCCCCC[N+](C)(C)Cc1ccccc1", "note": "[CETALKONIUM]", "values": [
      {"measurement": "log(1/C)", "setting": "Staphylococcus aureus", "value": 3.92}
    ]},
    {"smiles": "Cc1cc(O)ccc1Cl", "note": "[CHLOROCRESOL]", "values": [
      {"measurement": "log(1/C)", "setting": "Aspergillus niger", "value": 3.7}
    ]},
    {"smiles": "Cc1cc(O)cc(C)c1Cl", "note": "[CHLOROXYLENOL]", "values": [
      {"measurement": "log(1/C)", "setting": "Aspergillus niger", "value": 4.22}
    ]},
    {"smiles": "Cc1cccc(O)c1", "note": "[METACRESOL]", "values": [
      {"measurement": "log(1/C)", "setting": "Aspergillus niger", "value": 2.68}
    ]},
    {"smiles": "CCCCCCCCCCCCCC[N+](C)(C)Cc1ccccc1", "note": "[MIRISTALKONIUM ION]", "values": [
      {"measurement": "log(1/C)", "setting": "Staphylococcus aureus", "value": 4.17}
    ]},
    {"smiles": "Cc1ccccc1O", "note": "[ORTHOCRESOL]", "values": [
      {"measurement": "log(1/C)", "setting": "Aspergillus niger", "value": 2.7}
    ]},
    {"smiles": "Oc1ccc(Cl)cc1", "note": "[PARACHLOROPHENOL]", "values": [
      {"measurement": "log(1/C)", "setting": "Aspergillus niger", "value": 3.35}
    ]},
    {"smiles": "Oc1ccccc1", "note": "[PHENOL]", "values": [
      {"measurement": "log(1/C)", "setting": "Aspergillus niger", "value": 2.35}
    ]}
  ]
}
